Calls of active or inactive are those of the source. The calls are words filed in the database; no cut-off is given here.
Columns and labels:
Hepatitis C virus [1] = assay: Antiviral activity against Hepatitis C virus infected in […] after 72 hrs by luciferase reporter gene assay; type: functional, organism-based, Hepacivirus hominis; details: OR6, 72 h
[2] = Selectivity index, ratio of CC50 for human ORL8 cells to EC50 for Hepatitis C virus infected in […]; type: toxicity, cell-based; details: read-out: Ratio CC50/EC50
[3] = Cytotoxicity against human ORL8 cells after 72 hrs by WST-1 assay; type: cell-based
Human alphaherpesvirus 3 = assay: Antimicrobial activity against Varicella-zoster virus; type: functional, organism-based
Herpesviridae sp. = assay: Antimicrobial activity against Herpes simplex virus; type: functional, organism-based
[4] = system: Vesicular stomatitis virus; assay: Antimicrobial activity against Vesicular stomatitis virus; type: functional, organism-based
Cancer cell lines = assay: Cytotoxicity against human cervical cancer cells; type: functional, cell-based
Leukemia cell = assay: Cytotoxicity against mouse leukemia cells; type: functional, cell-based
Human betaherpesvirus 5 = assay: Antimicrobial activity against Human cytomegalovirus; type: functional, organism-based
Hepatitis C virus [5] = assay: Antiviral activity against Hepatitis C virus infected in mouse HB-1 cells after 24 hrs by ribonuclease replicon assay; type: functional, organism-based, Hepacivirus hominis; details: HB1, 24 h

SMILES | EC50 (Hepatitis C virus [1]) [µM] | selectivity ratio [2] | CC50 at 72 h [3] [µM] | Activity (Human alphaherpesvirus 3) | Activity (Herpesviridae sp.) | Activity [4] | inhibition (Cancer cell lines) | inhibition (Leukemia cell) | Activity (Human betaherpesvirus 5) | EC50 (Hepatitis C virus [5]) [µM]
NC(=O)c1ncn([C@@H]2O[C@H](CO)[C@@H](O)[C@H]2O)n1 [RIBAVIRIN] | 5.6 | 18 | 100 | – | – | – | – | – | – | –
Nc1ccn([C@@H]2O[C@](F)(CO)[C@@H](F)[C@H]2O)c(=O)n1 | > 50 | < 1 | > 50 | – | – | – | – | – | – | –
Nc1ncnc2c1ncn2[C@@H]1O[C@@](F)(CO)[C@H](F)[C@H]1O | > 100 | > 1 | > 100 | inactive | inactive | inactive | inactive | inactive | inactive | –
Nc1ncnc2c1ncn2[C@@H]1O[C@H](CO)[C@@H](F)[C@H]1O | – | – | – | – | – | – | – | – | – | 1.2
Nc1ncnc2c1ncn2[C@@H]1O[C@](F)(CO)[C@@H](F)[C@H]1O | 4.7 | 19 | 90 | inactive | inactive | inactive | inactive | inactive | inactive | –
Nc1ncnc2c1ncn2[C@@H]1O[C@](F)(CO)[C@H](F)[C@H]1O | > 200 | > 1 | > 200 | inactive | inactive | inactive | inactive | inactive | inactive | –
Nc1ncnc2c1ncn2[C@@H]1O[C@H](CO)C[C@H]1O [CORDYCEPIN] | 70 | 0.19 | 13 | – | – | – | – | – | – | –
CC(C)OC(=O)[C@H](C)N[P@](=O)(OC[C@H]1O[C@@H](n2ccc(=O)[nH]c2=O)[C@](C)(F)[C@@H]1O)Oc1ccccc1 [SOFOSBUVIR] | 0.14 | > 36 | > 5 | – | – | – | – | – | – | –
Nc1ccn([C@@H]2O[C@](F)(CO)[C@H](F)[C@H]2O)c(=O)n1 | > 100 | < 0.36 | 36 | – | – | – | – | – | – | –
Nc1ncnc2c1ncn2[C@@H]1O[C@@](F)(CO)[C@@H](F)[C@@H]1O | > 200 | > 1 | > 200 | inactive | inactive | inactive | inactive | inactive | inactive | –
Nc1ccn([C@@H]2O[C@@](F)(CO)[C@H](F)[C@H]2O)c(=O)n1 | > 100 | < 0.23 | 23 | – | – | – | – | – | – | –

Reference: ChEMBL document CHEMBL3352698, “Synthesis of 3',4'-difluoro-3'-deoxyribonucleosides and its evaluation of the biological activities: discovery of a novel type of anti-HCV agent 3',4'-difluorocordycepin” (Bioorg Med Chem, 2014)
